According to patent US10604514B2, “6-(5-membered heteroaryl)isoquinolin-3-yl carboxamides and preparation and use thereof” (Samumed, LLC, priority 2017, dated 2020):
pEC50: −log10 of the molar value. Read-outs that look alike come from different tables or passages of the source.

Legend:
[1] = test system: Wnt activity (Sp5-Luc reporter in SW480 colon carcinoma cells); assay: Wnt activity screening assay (Sp5-Luc reporter gene assay); format: cell-based, human; conditions: for pEC50: Sp5-Luc reporter, SW480 cells, 36 to 48 hours; for inhibition at 10 µM: SW480, read-out: percent inhibition at 10 μM
Outline: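 Compounds at 10 points (1:3 steps, top 10 μM, 0.1% DMSO final) were incubated 36 to 48 h at 37° C with stable Sp5-Luc SW480 reporter cells in 1% FBS medium. Luciferase luminescence was then read and expressed relative to DMSO-only cells. Four-parameter variable-slope fitting yielded EC50 values.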

GSK3β kinase = GSK3β kinase (Homo sapiens (Human), UniProt P49841); assay: GSK3β kinase assay (Ser/Thr 09 peptide Z-lyte, FRET); format: biochemical; conditions: method text calls the value IC50;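 note: Coumarin/fluorescein emission ratio converted to percent phosphorylation against unphosphorylated (0%) and phosphorylated (100%) controls, 1 h compound incubation at room temperature, 11-point threefold dilutions from 10 µM, run in duplicate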
GSK3β kinase, sequence (P49841 whole entry): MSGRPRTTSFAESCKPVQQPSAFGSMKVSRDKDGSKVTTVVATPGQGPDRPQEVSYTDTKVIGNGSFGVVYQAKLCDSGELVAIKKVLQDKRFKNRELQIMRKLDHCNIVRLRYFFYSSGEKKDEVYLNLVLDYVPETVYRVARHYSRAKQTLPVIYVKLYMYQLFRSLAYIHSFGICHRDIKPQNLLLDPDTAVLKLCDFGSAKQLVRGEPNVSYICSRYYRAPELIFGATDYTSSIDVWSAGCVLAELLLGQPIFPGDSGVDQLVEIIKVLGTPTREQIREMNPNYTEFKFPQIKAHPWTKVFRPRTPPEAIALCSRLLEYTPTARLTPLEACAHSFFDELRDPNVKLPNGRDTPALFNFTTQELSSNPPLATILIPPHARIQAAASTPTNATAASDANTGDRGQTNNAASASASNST

[2] = test system: Tau phosphorylation at Ser396 (pSer396), SH-SY5Y cells; assay: Tau phosphorylation at Ser396 (pSer396) in SH-SY5Y cells, ELISA/western blot; format: cell-based, human; conditions: SH-SY5Y cells, overnight (16-18 h), read-out: pSer396 Tau EC50;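 note: cell lysates probed for reduced Tau pSer396 via ELISA (colorimetric) or western blot (chemiluminescence), both with one shared pSer396 antibody, EC50 for lowering phosphorylation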
[3] = test system: SW480 colon carcinoma cells; assay: Cell viability assay (CellTiter-Glo) in SW480 cells; format: cell-based, human; conditions: for pEC50: cell viability, SW480 cells, four days, CellTiter-Glo; for inhibition at 10 µM: SW480, read-out: percent inhibition at 10 μM;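 for all read-outs here: SW480 cells stably carrying an Sp5-luciferase TCF/LEF reporter, luminescent ATP signal as viability measure, DMSO-treated cells as control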
[4] = test system: LL29 cells (primary human fibroblasts derived from IPF patients), α-smooth muscle actin; assay: Inhibition of fibrotic process: αSMA in TGF-β1-treated primary human fibroblasts from IPF patients (LL29 cells); format: cell-based; conditions: for pEC50: % αSMA-positive LL29 cells, TGF-β1 20 ng/mL, 4 days; for inhibition at 10 µM: read-out: percent inhibition at 10 μM
Outline: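 Read-out is the percentage of αSMA-positive cells by high-content imaging, excluding SYTOX green-positive dead/apoptotic cells, normalized to TGF-β1-only wells on the same plate. LL29 cells were exposed for 4 days at 37 °C to 20 ng/mL TGF-β1 plus 11-point, 2-fold compound dilutions in 0.1% DMSO.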

IL-6 = IL-6 inhibition in LPS-stimulated human peripheral blood mononuclear cells (HTRF); format: cell-based; conditions: for pEC50: IL-6, LPS-stimulated huPBMCs, HTRF; for inhibition at 10 µM: read-out: percent value in parentheses below EC50 >10
Outline: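 EC50 from a 4-parameter fit of DMSO-normalized HTRF (665/620 nm) IL-6 signal, duplicates. Compound was added to fresh human PBMCs in 1% FBS RPMI for 2 h (top 10 μM, 3-fold, 0.25% DMSO) before 22 h stimulation with LPS at 50 ng/mL, 37 °C.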

DYRK1A kinase = DYRK1A kinase (Homo sapiens (Human), UniProt Q13627); assay: DYRK1A kinase assay (Ser/Thr 18 peptide Z-lyte, FRET); conditions: DYRK1A kinase; method text calls the value IC50

Structure (SMILES) | pEC50 [1] | pEC50 (GSK3β kinase) | pEC50 [2] | pEC50 [3] | pEC50 [4] | percent inhibition of IL-6 at 10 µM (IL-6) | pEC50 (IL-6) | pEC50 (DYRK1A kinase) | pEC50 ([1]; Homo sapiens) | pEC50 ([2]; Homo sapiens) | pEC50 ([3]; Homo sapiens, 96 h) | pEC50 ([4]; Homo sapiens, Fibroblast, 96 h) | pEC50 (IL-6; Homo sapiens, PBMC) | inhibition at 10 µM ([1]; Homo sapiens) [%] | inhibition at 10 µM ([3]; Homo sapiens) [%] | inhibition at 10 µM (IL-6; Homo sapiens, PBMC) [%] | inhibition at 10 µM ([4]; Homo sapiens, Fibroblast) [%]
Cc1ncc(-c2ccc3cnc(NC(=O)C4CCN(CC(C)(F)F)CC4)cc3c2)o1 [Compound 20, 1-(2,2-Difluoropropyl)-N-(6-(2-methyloxazol-5-yl)isoquinolin-3-yl) piperidine-4-carboxamide] | 5.58 | 7.39 | 6.28 | 5.51 | 6.32 | (13.4%) | < 5.00 | 8.30 |  |  |  |  |  |  |  |  | 
Cc1nnc(-c2ccc3cnc(NC(=O)[C@H]4CC[C@H](N)CC4)cc3c2)s1 [Compound 21, trans-4-Amino-N-(6-(5-methyl-1,3,4-thiadiazol-2-yl)isoquinolin-3-yl) cyclohexane-1-carboxamide] |  | 7.46 |  |  |  |  |  | 8.22 | 6.18 | 6.25 | 5.97 | 6.47 | 5.03 |  |  |  | 
Cc1nnc(-c2ccc3cnc(NC(=O)[C@H]4CC[C@H](N5CCOCC5)CC4)cc3c2)s1 [Compound 23, trans-N-(6-(5-Methyl-1,3,4-thiadiazol-2-yl)isoquinolin-3-yl)-4-morpholinocyclohexane-1-carboxamide] |  | 7.77 |  |  |  |  |  | 8.40 | 6.14 | 6.79 | 5.67 | 6.31 | 5.03 |  |  |  | 
Cc1nnc(-c2ccc3cnc(NC(=O)C4CCNCC4)cc3c2)s1 [Compound 24, N-(6-(5-Methyl-1,3,4-thiadiazol-2-yl)isoquinolin-3-yl)piperidine-4-carboxamide] |  | 7.52 |  |  |  |  |  | 8.15 | 5.93 | 6.90 | 5.44 | 6.24 | 5.06 |  |  |  | 
Cc1nnc(-c2ccc3cnc(NC(=O)C4(F)CCNCC4)cc3c2)s1 [Compound 25, 4-Fluoro-N-(6-(5-methyl-1,3,4-thiadiazol-2-yl)isoquinolin-3-yl)piperidine-4-carboxamide] |  | 6.50 |  |  |  |  |  | 7.85 | < 5.00 | 6.37 | < 5.00 | 5.41 | < 5.00 | 34.3 | 40.3 | 8 | 
Cc1nnc(-c2ccc3cnc(NC(=O)C4(F)CCN(C)CC4)cc3c2)s1 [Compound 26, 4-Fluoro-1-methyl-N-(6-(5-methyl-1,3,4-thiadiazol-2-yl)isoquinolin-3-yl) piperidine-4-carboxamide] |  | 6.28 |  |  |  |  |  | 7.42 | 5.16 | 6.78 | 5.07 | < 5.00 | < 5.00 |  |  | 5.6 | 48.4
Cc1nnc(-c2ccc3cnc(NC(=O)C4CCN(CC(F)F)CC4)cc3c2)s1 [Compound 27, 1-(2,2-Difluoroethyl)-N-(6-(5-methyl-1,3,4-thiadiazol-2-yl)isoquinolin-3-yl)piperidine-4-carboxamide] |  | 7.96 |  |  |  |  |  | 8.22 | 6.03 | 6.98 | 5.68 | 6.63 | < 5.00 |  |  | 2.8 | 
Cc1nnc(-c2ccc3cnc(NC(=O)C4CCN(CC(C)(F)F)CC4)cc3c2)s1 [Compound 28, 1-(2,2-Difluoropropyl)-N-(6-(5-methyl-1,3,4-thiadiazol-2-yl)isoquinolin-3-yl)piperidine-4-carboxamide] |  | 8.10 |  |  |  |  |  | 8.40 | 5.96 | 7.05 | < 5.00 | 6.35 | < 5.00 |  | 37.8 | 4.3 | 
Cc1nnc(-c2ccc3cnc(NC(=O)N(C)C4CCN(C)CC4)cc3c2)s1 [Compound 29, 1-Methyl-3-(6-(5-methyl-1,3,4-thiadiazol-2-yl)isoquinolin-3-yl)-1-(1-methylpiperidin-4-yl)urea] |  | 6.47 |  |  |  |  |  | 7.74 | < 5.00 | 5.47 | < 5.00 | < 5.00 | < 5.00 | 45.6 | 28.2 | 6 | 3.2
CNC1CCN(C(=O)Nc2cc3cc(-c4nnc(C)s4)ccc3cn2)CC1 [Compound 30, N-(6-(5-Methyl-1,3,4-thiadiazol-2-yl)isoquinolin-3-yl)-4-(methylamino) piperidine-1-carboxamide] |  | 7.00 |  |  |  |  |  | 7.57 | 5.48 | 6.34 | 5.17 | 5.39 | < 5.00 |  |  | 9.3 | 
Cc1nnc(-c2ccc3cnc(NC(=O)N4CCC(N(C)C)CC4)cc3c2)s1 [Compound 31, 4-(Dimethylamino)-N-(6-(5-methyl-1,3,4-thiadiazol-2-yl)isoquinolin-3-yl) piperidine-1-carboxamide] |  | 6.93 |  |  |  |  |  | 7.62 | 5.69 | 6.41 | 5.42 | 5.43 | < 5.00 |  |  | 19.8 | 
Cc1nnc(-c2ccc3cnc(NC(=O)N4CCC(N(C)CC(F)F)CC4)cc3c2)s1 [Compound 32, 4-((2,2-Difluoroethyl)(methyl)amino)-N-(6-(5-methyl-1,3,4-thiadiazol-2-yl)isoquinolin-3-yl)piperidine-1-carboxamide] |  | 6.68 |  |  |  |  |  | 7.77 | < 5.00 | 6.05 | < 5.00 | 6.11 | < 5.00 | 30.5 | 8.3 | 10.1 | 
Cc1nnc(-c2ccc3cnc(NC(=O)N4CC[C@H](N)[C@@H](F)C4)cc3c2)s1 [Compound 33, (3S,4S)-4-amino-3-fluoro-N-(6-(5-methyl-1,3,4-thiadiazol-2-yl)isoquinolin-3-yl)piperidine-1-carboxamide] |  | 7.64 |  |  |  |  |  | 8.05 | 5.46 | 6.49 | 5.33 | < 5.00 | 5.03 |  |  |  | 49.9
Cc1nnc(-c2ccc3cnc(NC(=O)N4CC[C@H](N(C)C)[C@@H](F)C4)cc3c2)s1 [Compound 34, (3S,4S)-4-(dimethylamino)-3-fluoro-N-(6-(5-methyl-1,3,4-thiadiazol-2-yl)isoquinolin-3-yl)piperidine-1-carboxamide] |  | 7.34 |  |  |  |  |  | 7.82 | 5.47 | 6.34 | 5.42 | < 5.00 | < 5.00 |  |  | 7 | 48.5
Cc1nnc(-c2ccc3cnc(NC(=O)N4CC[C@H](NC(C)C)[C@@H](F)C4)cc3c2)s1 [Compound 35, (3S,4S)-3-Fluoro-4-(isopropylamino)-N-(6-(5-methyl-1,3,4-thiadiazol-2-yl)isoquinolin-3-yl)piperidine-1-carboxamide] |  | 7.08 |  |  |  |  |  | 7.59 | 5.48 | 6.27 | 5.34 | 5.99 | < 5.00 |  |  | 9.6 | 
Cc1nnc(-c2ccc3cnc(NC(=O)N4CCOCC4)cc3c2)s1 [Compound 36, N-(6-(5-Methyl-1,3,4-thiadiazol-2-yl)isoquinolin-3-yl)morpholine-4-carboxamide] |  | 7.10 |  |  |  |  |  | 7.92 | 5.43 | 6.07 | 5.24 | 5.28 | < 5.00 |  |  | 4 | 
Cc1ncc(-c2ccc3cnc(NC(=O)[C@H]4CC[C@H](N(C)C5COC5)CC4)cc3c2)o1 [Compound 37, trans-4-(methyl(oxetan-3-yl)amino)-N-(6-(2-methyloxazol-5-yl)isoquinolin-3-yl)cyclohexane-1-carboxamide] |  | 6.86 |  |  |  |  |  | 8.15 | 5.39 | 6.30 | 5.16 | 6.61 | 5.87 |  |  |  | 
